In patent US20110217713A1 (On-Q-ity, priority 2010, published 2011):

Test system: non-small cell lung cancer patient specimens (adenocarcinomas and squamous cell carcinoma)
Assay: International Adjuvant Lung Trial (IALT): cisplatin-based therapy vs observation, DFS/OS against IHC DNA repair biomarker Q-scores (Cox PH models)
Type: in vivo, human
Procedure: An immunohistochemical evaluation of DNA Repair Proteins was conducted on a large international patient specimen collection from the IALT trial (International Adjuvant Lung Trial). This clinical trial originally comprised approximately 1867 non-small cell lung cancer patient specimens (adenocarcinomas and squamous cell carcinoma) and was designed to test clinical parameters for patients receiving either cisplatin-based therapy or those considered observation. One problem with testing of biomarkers in general from clinical trials is that the patient population treatments are generally a mixture of several different treatments and combinations of such and so results may be confounded by interactions of various treatments. However, the IALT trial represents pristine treatment arms of cisplatin and observation and thus is relatively free of confounding affects due to treatment variation.
International Adjuvant Lung Cancer Trial (IALT) NSCLC FFPE patient specimens constructed on TMAs (13 total) were stained by IHC for DNA repair biomarkers: ATM, MSH2, ERCC1, p53, pMK2, PARP1, BRCA1, XPF. An average of 603 patients were analyzed for each biomarker. Tumor biomarker nuclear or cytoplasmic levels were determined using digital image user defined macros. Scores were generated based on weighted intensity and quantity of stained cells. In reference to accompanying diagrams in the Powerpoint files, please note that a wide dynamic range achieved during assay development and optimization in commercially available TMAs is translationally achieved when patients comprising this study population are stained, annotated for tumor region and scored by user-defined macros.
Previous studies have utilized standard pathologist-based scoring, thus we chose to optimize the IHC-based assessment of biomarker levels using digital pathology and weighted scoring. This endeavor is undertaken so that for a given population a continuum of scores (herein referred to as Q-scores) with a broad dynamic range may be generated by user defined macros. Here, scoring of individual tumor cells comprising each patient specimen is generated and then patients assembled into a population continuum of scores against which finer cut-points may tested and established rather than crude binning methods as employed in previous studies.
Q-score=10*(% of 10+cells)+9*(% of 9+cells)+8*(% of 8+cells)+7*(% of 7+cells) . . . 1*(% of 1+cells)
Cox PH models adjusted for relevant clinical and stratification variables were used in the univariate analyses of Disease-Free Survival (DFS) and Overall Survival (OS). Initial analyses were conducted using biomarker Q scores as continuous variables against clinical endpoint metrics.

[1] = ATM model, ADENOCARCINOMA, With adjustment variables
[2] = ATM model, ADENOCARCINOMA, With selected variables
[3] = ATM model, ADENOCARCINOMA, Without variables
[4] = ATM model, SQUAMOUS CELLS, With adjustment variables
[5] = ATM model, SQUAMOUS CELLS, With selected variables
[6] = ATM model, SQUAMOUS CELLS, Without variables
[7] = BRCA1 model, ADENOCARCINOMA, With adjustment variables
[8] = BRCA1 model, ADENOCARCINOMA, With selected variables
[9] = BRCA1 model, ADENOCARCINOMA, Without variables
[10] = BRCA1 model, SQUAMOUS CELLS, With adjustment variables
[11] = BRCA1 model, SQUAMOUS CELLS, With selected variables
[12] = BRCA1 model, SQUAMOUS CELLS, Without variables
[13] = Cox PH model with PMK2MC, with adjustment variables, histology heading not shown
[14] = Disease Free Survival, MEAN Q SCORE OF PMK2 CYTOPLASM DIVIDED BY NUCLEAR, Adenocarcinoma, With selected variables
[15] = Disease Free Survival, MEAN Q SCORE OF PMK2 CYTOPLASM DIVIDED BY NUCLEAR, Adenocarcinoma, Without variables
[16] = Disease Free Survival, MEAN Q SCORE PMK2 CYTOPLASM, Adenocarcinoma, With adjustment variables
[17] = Disease Free Survival, MEAN Q SCORE PMK2 CYTOPLASM, Adenocarcinoma, With selected variables
[18] = Disease Free Survival, MEAN Q SCORE PMK2 CYTOPLASM, Adenocarcinoma, Without variables
[19] = Disease Free Survival, MEAN Q SCORE PMK2 CYTOPLASM, Squamous Cells, With adjustment variables
[20] = Disease Free Survival, MEAN Q SCORE PMK2 CYTOPLASM, Squamous Cells, With selected variables
[21] = Disease Free Survival, MEAN Q SCORE PMK2 CYTOPLASM, Squamous Cells, Without variables
[22] = Disease Free Survival, MEAN Q SCORE PMK2 NUCLEAR, Adenocarcinoma, With adjustment variables
[23] = Disease Free Survival, MEAN Q SCORE PMK2 NUCLEAR, Adenocarcinoma, With selected variables
[24] = Disease Free Survival, MEAN Q SCORE PMK2 NUCLEAR, Adenocarcinoma, Without variables
[25] = Disease Free Survival, MEAN Q SCORE PMK2 NUCLEAR, Squamous Cells, With adjustment variables
[26] = Disease Free Survival, MEAN Q SCORE PMK2 NUCLEAR, Squamous Cells, With selected variables
[27] = Disease Free Survival, MEAN Q SCORE PMK2 NUCLEAR, Squamous Cells, Without variables
[28] = Disease Free Survival, MEAN Q SCORE SUM OF PMK2 CYTOPLASM & NUCLEAR, Adenocarcinoma, With adjustment variables
[29] = Disease Free Survival, MEAN Q SCORE SUM OF PMK2 CYTOPLASM & NUCLEAR, Adenocarcinoma, With selected variables
[30] = Disease Free Survival, MEAN Q SCORE SUM OF PMK2 CYTOPLASM & NUCLEAR, Adenocarcinoma, Without variables
[31] = Disease Free Survival, MEAN Q SCORE SUM OF PMK2 CYTOPLASM & NUCLEAR, Squamous Cells, With adjustment variables
[32] = Disease Free Survival, MEAN Q SCORE SUM OF PMK2 CYTOPLASM & NUCLEAR, Squamous Cells, With selected variables
[33] = Disease Free Survival, MEAN Q SCORE SUM OF PMK2 CYTOPLASM & NUCLEAR, Squamous Cells, Without variables
[34] = ERCC1 model, ADENOCARCINOMA, With adjustment variables

N.N.[Cl][Pt][Cl] [cisplatin]
HazardRatio, ATM_Treatment [1]: 0.941 | HazardRatio, Treatment [1]: 1.033 | HazardRatio, ATM_Treatment [2]: 0.993 | HazardRatio, Treatment [2]: 1.004 | HazardRatio, ATM_Treatment [3]: 0.972 | HazardRatio, Treatment [3]: 1.142 | HazardRatio, ATM_Treatment [4]: 1.172 | HazardRatio, Treatment [4]: 0.625 | HazardRatio, ATM_Treatment [5]: 1.172 | HazardRatio, Treatment [5]: 0.640 | HazardRatio, ATM_Treatment [6]: 1.148 | HazardRatio, Treatment [6]: 0.659 | HazardRatio, BRCA1_Treatment [7]: 1.022 | HazardRatio, Treatment [7]: 0.895 | HazardRatio, BRCA1_Treatment [8]: 1.027 | HazardRatio, Treatment [8]: 0.954 | HazardRatio, BRCA1_Treatment [9]: 0.844 | HazardRatio, Treatment [9]: 1.391 | HazardRatio, BRCA1_Treatment [10]: 1.043 | HazardRatio, Treatment [10]: 0.819 | HazardRatio, BRCA1_Treatment [11]: 1.048 | HazardRatio, Treatment [11]: 0.831 | HazardRatio, BRCA1_Treatment [12]: 1.028 | HazardRatio, Treatment [12]: 0.852 | HazardRatio, PMK2MC_Treatment interaction (Disease Free Survival) [13]: 1.244 | HazardRatio, Treatment (Disease Free Survival) [13]: 0.787 | HazardRatio, Treatment (Disease Free Survival, MEAN Q SCORE OF PMK2 CYTOPLASM DIVIDED BY NUCLEAR, Adenocarcinoma, With adjustment variables): 0.790 | HazardRatio, PMK2MCNp_Treatment [14]: 31E22 | HazardRatio, Treatment [14]: 0.827 | HazardRatio, PMK2MCNp_Treatment [15]: 263.6 | HazardRatio, Treatment [15]: 0.997 | HazardRatio, Treatment (Disease Free Survival, MEAN Q SCORE OF PMK2 CYTOPLASM DIVIDED BY NUCLEAR, Squamous Cells, With adjustment variables): 0.643 | HazardRatio, Treatment (Disease Free Survival, MEAN Q SCORE OF PMK2 CYTOPLASM DIVIDED BY NUCLEAR, Squamous Cells, With selected variables): 0.681 | HazardRatio, Treatment (Disease Free Survival, MEAN Q SCORE OF PMK2 CYTOPLASM DIVIDED BY NUCLEAR, Squamous Cells, Without variables): 0.755 | HazardRatio, PMK2MC_Treatment [16]: 1.163 | HazardRatio, Treatment [16]: 0.862 | HazardRatio, PMK2MC_Treatment [17]: 1.096 | HazardRatio, Treatment [17]: 0.874 | HazardRatio, PMK2MC_Treatment [18]: 0.647 | HazardRatio, Treatment [18]: 1.173 | HazardRatio, PMK2MC_Treatment [19]: 1.206 | HazardRatio, Treatment [19]: 0.804 | HazardRatio, PMK2MC_Treatment [20]: 1.203 | HazardRatio, Treatment [20]: 0.827 | HazardRatio, PMK2MC_Treatment [21]: 1.134 | HazardRatio, Treatment [21]: 0.846 | HazardRatio, PMK2MN_Treatment [22]: 1.094 | HazardRatio, Treatment [22]: 0.815 | HazardRatio, PMK2MN_Treatment [23]: 1.087 | HazardRatio, Treatment [23]: 0.816 | HazardRatio, PMK2MN_Treatment [24]: 0.911 | HazardRatio, Treatment [24]: 1.145 | HazardRatio, PMK2MN_Treatment [25]: 1.126 | HazardRatio, Treatment [25]: 0.758 | HazardRatio, PMK2MN_Treatment [26]: 1.129 | HazardRatio, Treatment [26]: 0.775 | HazardRatio, PMK2MN_Treatment [27]: 1.107 | HazardRatio, Treatment [27]: 0.789 | HazardRatio, PMK2MCNs_Treatment [28]: 1.064 | HazardRatio, Treatment [28]: 0.824 | HazardRatio, PMK2MCNs_Treatment [29]: 1.056 | HazardRatio, Treatment [29]: 0.829 | HazardRatio, PMK2MCNs_Treatment [30]: 0.915 | HazardRatio, Treatment [30]: 1.174 | HazardRatio, PMK2MCNs_Treatment [31]: 1.078 | HazardRatio, Treatment [31]: 0.772 | HazardRatio, PMK2MCNs_Treatment [32]: 1.079 | HazardRatio, Treatment [32]: 0.791 | HazardRatio, PMK2MCNs_Treatment [33]: 1.062 | HazardRatio, Treatment [33]: 0.808 | HazardRatio, ERCC1_Treatment [34]: 1.170 | HazardRatio, Treatment [34]: 0.689 | HazardRatio, ERCC1_Treatment (ERCC1 model, ADENOCARCINOMA, With selected variables): 1.151
